Legend:
C57BL/6J mouse islets = test: GSIS and GSCa of islets isolated from siRNA-injected mice; assay type: cell-based
Description: To clarify this, islets were isolated from siRNA-injected mice and their function assessed in vitro. […] In order to further characterize this improvement in islet glucose responsiveness, glucose-stimulated Ca2+ mobilization (GSCa) studies were also performed. GSCa is a measure of islet glucose sensitivity that captures the dynamics of the islet glucose response, which is similar to GSIS (31). The GSCa, as measured by the change in fura-2 AM fluorescence ratio after glucose stimulation, was increased in si-eIF5A-treated islets compared to controls, reflecting the functional improvement seen in GSIS (FIG. 3D). This improved GSCa relative to controls persisted 48 and 72 hours post-isolation (data not shown).
A short cytokine exposure (4 h) was utilized to assess early impairment in islet function independent of islet cell death. […] As shown in the inset to FIG. 3E, eIF5A levels remained persistently lower in the si-eIF5A group even after cytokine exposure.
Cytokine and inhibitor incubation studies: For cytokine incubation assays, a 1000× cocktail of cytokines containing 5 μg/ml IL1β, 10 μg/ml TNFα, and 100 μg/ml IFNγ (all prepared in 0.1% BSA in Tris-buffered saline) was applied at 1× final concentration to groups of 50 islets or 1×10^6 INS-1 (832/13) cells for a total of 4 h at 37° C. For GC7 incubation studies, GC7 was prepared at a stock concentration of 125 mM in 10 mM acetic acid and applied to cultures of 50 islets or 1×10^6 INS-1 cells to obtain the final concentrations indicted in the figures. Where needed, GC7 was protected from amine oxidases in serum by addition of 1 mM aminoguanidine (Sigma). Cells were incubated with GC7 overnight (˜16 h) at 37° C. prior to analysis. Cells were exposed to Leptomycin B (Cayman Chemicals) for 3 hours; leptomycin B was prepared at a 1000× stock concentration of 20 μg/ml in ethanol.
GSCa imaging assays: Intracellular Ca^2+ ((Ca2+)i) was measured using the ratiometric Ca^2+ indicator fura-2 AM using a modification of previously published methods (79). The glucose-stimulated (Ca2+)i response (GSCa) was defined as the difference between ratio measurements (340/380 nm fluorescence) in 11 mM vs. 3 mM glucose. Data were analyzed with IP Lab's software version 4.0 (Scanalytics).
(§1) GSIS and IPGTT studies: For GSIS studies using isolated islets, approximately 50 islets or 1×10^6 INS-1 cells per condition were washed and incubated in Krebs-Ringer HEPES-buffered (KRB) solution for one hour at 37° C., and then placed in KRB solution containing 3 mM or 11 mM glucose for one hour. […] Blood glucose was measured from samples taken from the tail vein before intraperitoneal injection of 1 g glucose per kg mouse weight, and at 10, 20, 30, 60, 90, 120, and 180 minutes after glucose administration using an A1phaTrak® glucometer (Abbott).

[1] = tested on: STZ-treated NOD/Scid-(IL-2Rγ-null) mice; test: Multiple low-dose STZ model in immune-deficient NOD/Scid-(IL-2Rγ-null) mice; assay type: in vivo, mouse; details: multiple low-dose STZ (data not shown for si-eIF5A)
Description: To test the role of eIF5A in cytokine-mediated islet dysfunction, efforts were made to identify a mouse model of islet inflammation. The multiple low dose streptozotocin (STZ) model, in which mice are subjected to five daily intraperitoneal doses (at 55 mg/kg body weight) of STZ, is considered to provoke local islet inflammation and cytokine release, in part through the recruitment of CD11c+ dendritic cells that release pro-inflammatory cytokines in the area of STZ-induced cellular destruction (27 and 28).
As noted, low-dose STZ-induced islet dysfunction involves at least two mechanisms: an inflammatory mechanism that is dependent upon cytokine release from immune cells and a direct toxic mechanism on the islet itself. […] Next, islets from 3 C57BL/6J mice per group 24 h after the initial STZ treatment were isolated and pooled and their iNOS content determined by immunoblot. […]
Studies in vivo: Daily STZ injections to groups of 10 week-old C57BL/6J and NOD/Scid-(IL-2Rγ-null) mice proceeded as described previously (30) at a dose of 55 mg STZ per kg mouse weight for 5 days. […] Serum was analyzed using a Luminex system (Millipore) and a mouse cytokine/chemokines Panel 1 mutliplex kit (Millipore).

[2] = tested on: LPS-treated NOD/Scid-(IL-2Rγ-null) mice; test: LPS injection model in NOD/Scid-(IL-2Rγ-null) mice; assay type: in vivo, mouse; details: GC7 4 mg/kg/day i.p.
Description: Because systemic GC7 delivery would be expected to inhibit hypusination in all cells that express DHS, it is unclear if the islet protection afforded by GC7 in vivo is a result of its effects in the islet, the immune cells, or both. In order to clarify this, the IL-1 responses in STZ-treated C57BL/6J animals were assessed by measuring levels of the IL-1-responsive cytokine IL-6. […] No alterations in serum levels of IL13 and Rantes/CCL5 were observed between treatment groups (FIG. 10F). […] To address the role of immune cells more directly, a mouse model was generated to test the role of hypusination in the islet inflammatory response independently of the immune system. Lipopolysaccharide (LPS) is an agent that evokes the NFkB response through activation of the toll-like receptor 4 (TLR4) (48), which is also expressed in pancreatic islets (49). […]
as §1, with “(Abbott). […]” for “(Abbott).”

[3] = IL-1β, TNFα, IFNγ for 4 h, compared to controls

Molecule	GSCa of isolated islets after cytokines (C57BL/6J mouse islets; [3])	GSIS of isolated islets after cytokines (C57BL/6J mouse islets; [3])	glucose-stimulated insulin secretion (GSIS) of isolated islets (C57BL/6J mouse islets; islets from siRNA-injected mice, no cytokines)	glucose-stimulated Ca2+ mobilization (GSCa) of isolated islets (C57BL/6J mouse islets; islets from siRNA-injected mice, no cytokines, compared to controls)	protection against glucose intolerance [1]	glucose intolerance in IPGTT 3 days after LPS ([2]; LPS 20 mg/kg single injection)	iNOS staining intensity in islets ([2]; LPS 20 mg/kg)
5′-AACGGAAUGACUUCCAGCUGA-3′ (siSTABLE modification, further chemistry not given here) [si-eIF5A]	significant preservation	significant preservation	significant improvement in islet response to glucose stimulation	increased	did not protect against glucose intolerance	–	–
NCCCCCCCN=C(N)N [GC7]	–	–	–	–	–	no evidence of glucose intolerance	increased iNOS staining intensity in islets of vehicle-treated animals, but not in GC7-treated animals
